# Assay results published in patent US20240174690A1, “ANNULATED 2-AMINO-3-CYANO THIOPHENES AND DERIVATIVES FOR THE TREATMENT OF CANCER” (BOEHRINGER INGELHEIM INTERNATIONAL GMBH, priority 2021, published 2024).
# Tests used:
# CYP3A4 = CYP3A4 (Homo sapiens (Human), UniProt P08684); experiment: Mechanism based inhibition of CYP3A4 assay (MBI 3A4); assay type: in vitro ADME; details: hydroxy-midazolam formation after 30 min vs 0 min preincubation, 25 uM, human liver microsomes
# Method in brief: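 Readout is hydroxy-midazolam formed after 30 min preincubation relative to 0 min, measured by LC/MS-MS after acetonitrile quench. Following preincubation, samples diluted 1:10 and incubated 15 min with midazolam substrate.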
# SK-CO-1 cells = experiment: SK-CO-1 CTG proliferation assay (120 h) (CRC, G12V); assay type: cell-based; details: SK-CO-1 cells (CRC, G12V), CTG 120 h
# Method in brief: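 Compound exposure lasted 120 h in KRAS G12V SK-CO-1 cells seeded overnight at 500 cells/well in 10% FCS EMEM. CellTiter-Glo RLU normalised to DMSO wells gave percent viability, and a four-parameter model fit yielded IC50.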
# [1] = Caco-2 assay (permeability PappAB, PappBA, efflux ratio); assay type: in vitro ADME; details: human, Caco-2, 10 μM test compound, pH 7.4; for Papp A→B at 90 min, 10 μM: apical to basolateral; for efflux ratio at 90 min, 10 μM: efflux ratio PappBA/PappAB, read-out: Caco ER
# Method in brief: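 Bidirectional permeability (apical-to-basolateral and reverse) through polarized Caco-2 monolayers, BSA 0.25% on each side, 37 °C. Donor and receiver sampled at 0-90 min after 25-30 min preincubation, analysed by HPLC/MS/MS. Apparent permeabilities derived from transfer rate normalised to area and t=0 donor concentration; ER taken as PappBA over PappAB.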
# [2] = system: KRAS G12D-dependent Ba/F3 cells; experiment: Ba/F3 proliferation assay, KRAS G12D; assay type: cell-based; details: AlamarBlue
# Method in brief: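 IL-3-independent Ba/F3 lines carrying retrovirally introduced KRAS G12C, G12D or G12V; puromycin withdrawn ~10 days before assay. Duplicate treatments, AlamarBlue fluorescence readout, curve-fit analysis.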
# Chain of CYP3A4 (P08684 whole entry): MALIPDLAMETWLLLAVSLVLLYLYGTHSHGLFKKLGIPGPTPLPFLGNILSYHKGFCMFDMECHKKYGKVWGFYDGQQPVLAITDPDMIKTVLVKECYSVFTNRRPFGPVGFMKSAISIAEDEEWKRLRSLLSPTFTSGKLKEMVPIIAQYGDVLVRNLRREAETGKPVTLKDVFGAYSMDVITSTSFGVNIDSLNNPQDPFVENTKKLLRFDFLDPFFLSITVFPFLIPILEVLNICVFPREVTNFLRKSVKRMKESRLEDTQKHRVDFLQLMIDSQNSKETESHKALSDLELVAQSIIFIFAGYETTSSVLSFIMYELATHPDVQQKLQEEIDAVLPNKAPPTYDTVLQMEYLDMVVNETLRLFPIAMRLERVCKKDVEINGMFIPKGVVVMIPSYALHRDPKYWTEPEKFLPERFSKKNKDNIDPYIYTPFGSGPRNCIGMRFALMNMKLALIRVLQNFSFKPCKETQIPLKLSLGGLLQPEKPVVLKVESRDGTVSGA
MBI 3A4 (CYP3A4) [%],IC50 (SK-CO-1 cells; Homo sapiens) [nM],"Papp A→B at 90 min, 10 μM [1] [×10⁻⁶ cm/s]","efflux ratio at 90 min, 10 μM [1]","IC50 ([2]; Mus musculus, BaF3, 72 h) [nM]",SMILES,IC50 (SK-CO-1 cells) [nM],IC50 ([2]; 72 h) [nM]
77,6,3.5,6.6,23,C[C@H](Oc1cc(-n2ccc(C(N)=O)n2)nc(-c2noc3c2CCC[C@@]32CCCc3sc(N)c(C#N)c32)n1)[C@@H]1CCCN1C [II-21],–,–
85,185,4.3,4.9,30,C[C@H](Oc1cc(-n2ccnc2)nc(-c2onc3c2CCC[C@@]32CCCc3sc(N)c(C#N)c32)n1)[C@@H]1CCCN1C [I-20],–,–
37,–,–,–,243,C[C@H](Oc1nc(-c2onc3c2CCC[C@@]32CCCc3sc(N)c(C#N)c32)cc(N2CCN(C)C3(CC3)C2)n1)[C@@H]1CCCN1C [I-40],–,–
45,1080,12,2,78,C[C@H](Oc1cc(N2CCN(C)C3(COC3)C2)nc(-c2onc3c2CCC[C@@]32CCCc3sc(N)c(C#N)c32)n1)[C@@H]1C[C@@H](F)CN1C [I-37],–,–
71,115,11,0.7,49,C[C@H](Oc1cc(-c2ccn(C)n2)nc(-c2noc3c2CCC[C@@]32CCCc3sc(N)c(C#N)c32)n1)[C@@H]1C[C@@H](F)CN1C [II-27],–,–
77,131,–,–,250,Cc1ccc(-c2cc(O[C@@H](C)[C@@H]3CCCN3C)nc(-c3onc4c3CCC[C@@]43CCCc4sc(N)c(C#N)c43)n2)cn1 [I-28],–,–
76,1250,–,5.3,14,C[C@H](Oc1cc(N2CC[C@H](N(C)C)C2)nc(-c2noc3c2CCC[C@@]32CCCc3sc(N)c(C#N)c32)n1)[C@@H]1C[C@@H](F)CN1C [II-15],–,–
64,541,< 4.8,–,9,C[C@H](Oc1cc(N2CCNC3(COC3)C2)nc(-c2onc3c2CCC[C@@]32CCCc3sc(N)c(C#N)c32)n1)[C@@H]1CCCN1C [I-4],–,–
36,–,1.2,17.5,124,C[C@H](Oc1nc(-c2onc3c2CCC[C@@]32CCCc3sc(N)c(C#N)c32)cc(N2CCNC3(CC3)C2)n1)[C@@H]1CCCN1C [I-2],–,–
78,819,–,12.1,20,C[C@H](Oc1cc(N2CC[C@H](N3CCCCC3)C2)nc(-c2noc3c2CCC[C@@]32CCCc3sc(N)c(C#N)c32)n1)[C@@H]1CCCN1C [II-12],–,–
73,181,–,–,81,C[C@H](Oc1cc(-c2ccn3ncnc3c2)nc(-c2onc3c2CCC[C@@]32CCCc3sc(N)c(C#N)c32)n1)[C@@H]1CCCN1C [I-33],–,–
73,67,–,–,24,Cc1nc(-c2cc(O[C@@H](C)[C@@H]3CCCN3C)nc(-c3onc4c3CCC[C@@]43CCCc4sc(N)c(C#N)c43)n2)cs1 [I-24],–,–
63,9,11.1,3.3,16,CNC(=O)c1ccn(-c2cc(O[C@@H](C)[C@@H]3CCCN3C)nc(-c3noc4c3CCC[C@@]43CCCc4sc(N)c(C#N)c43)n2)n1 [II-20],–,–
41,111,–,–,14,C[C@H](Oc1cc(-n2ccnn2)nc(-c2onc3c2CCC[C@@]32CCCc3sc(N)c(C#N)c32)n1)[C@@H]1CCCN1C [I-32],–,–
84,1070,0.6,32.2,70,C[C@H](Oc1cc(N2CCC(N(C)C)CC2)nc(-c2noc3c2CCC[C@@]32CCCc3sc(N)c(C#N)c32)n1)[C@@H]1CCCN1C [II-48],–,–
57,139,9.2,1.5,27,CO[C@@H]1C[C@@H]([C@H](C)Oc2cc(-c3ccn(C)n3)nc(-c3onc4c3CCC[C@@]43CCCc4sc(N)c(C#N)c43)n2)N(C)C1 [I-23],–,–

MBI 3A4 (CYP3A4) [%],IC50 (SK-CO-1 cells; Homo sapiens) [nM],"Papp A→B at 90 min, 10 μM [1] [×10⁻⁶ cm/s]","efflux ratio at 90 min, 10 μM [1]","IC50 ([2]; Mus musculus, BaF3, 72 h) [nM]",SMILES,IC50 (SK-CO-1 cells) [nM],IC50 ([2]; 72 h) [nM]
71,118,3,10.7,48,C[C@H](Oc1cc(-c2ccn(CC(C)(C)O)n2)nc(-c2onc3c2CCC[C@@]32CCCc3sc(N)c(C#N)c32)n1)[C@@H]1CCCN1C [I-26],–,–
79,704,0.3,76.6,3,C[C@H](Oc1cc(N2CCNC(C)(C)C2)nc(-c2noc3c2CCC[C@@]32CCCc3sc(N)c(C#N)c32)n1)[C@@H]1CCCN1C [II-32],–,–
–,1050,0.4,52.3,82,C[C@H](Oc1cc(N2C[C@H]3CN(C)C[C@H]3C2)nc(-c2noc3c2CCC[C@@]32CCCc3sc(N)c(C#N)c32)n1)[C@@H]1CCCN1C [II-33],–,–
65,365,< 0.1,–,4,C[C@H](Oc1cc(N2CCNC3(COC3)C2)nc(-c2noc3c2CCC[C@@]32CCCc3sc(N)c(C#N)c32)n1)[C@@H]1CCCN1C [II-31],–,–
67,84,3.6,9.2,38,C[C@H](Oc1cc(-c2ccn(C3COC3)n2)nc(-c2onc3c2CCC[C@@]32CCCc3sc(N)c(C#N)c32)n1)[C@@H]1CCCN1C [I-34],–,–
83,771,1,32.3,10,C[C@H](Oc1cc(N2CC[C@H](N3CCCC3)C2)nc(-c2noc3c2CCC[C@@]32CCCc3sc(N)c(C#N)c32)n1)[C@@H]1CCCN1C [II-14],–,–
–,515,10,2.9,3,CO[C@H]1CCN(C)[C@@H]1[C@H](C)Oc1cc(N2CCNC3(CC3)C2)nc(-c2onc3c2CCC[C@@]32CCCc3sc(N)c(C#N)c32)n1 [I-49],–,–
50,52,–,1.1,64,C[C@H](Oc1cc(-c2cnsc2)nc(-c2onc3c2CCC[C@@]32CCCc3sc(N)c(C#N)c32)n1)[C@@H]1CCCN1C [I-27],–,–
–,14,14,3.4,11,COCCNC(=O)c1ccn(-c2cc(O[C@@H](C)[C@@H]3CCCN3C)nc(-c3onc4c3CCC[C@@]43CCCc4sc(N)c(C#N)c43)n2)n1 [I-58],–,–
–,692,1.1,12.7,144,C[C@H](Oc1cc(N2CCN(CCO)CC2)nc(-c2noc3c2CCC[C@@]32CCCc3sc(N)c(C#N)c32)n1)[C@@H]1CCCN1C [II-8],–,–
–,174,0.2,104,11,C[C@H](Oc1cc([C@H]2CCN(C)C2)nc(-c2noc3c2CCC[C@@]32CCCc3sc(N)c(C#N)c32)n1)[C@@H]1CCCN1C [II-38],–,–
–,2050,–,1.7,41,CO[C@@H]1C[C@@H]([C@H](C)Oc2cc(N3CCN(C)C4(CC4)C3)nc(-c3onc4c3CCC[C@@]43CCCc4sc(N)c(C#N)c43)n2)N(C)C1 [I-50],–,–
63,38,–,2,26,C[C@H](Oc1cc(-c2ccn([C@H]3CCCOC3)n2)nc(-c2noc3c2CCC[C@@]32CCCc3sc(N)c(C#N)c32)n1)[C@@H]1CCCN1C [II-42],–,–
68,2760,–,–,11,C[C@H](Oc1cc(N2CCN(C)C3(CC3)C2)nc(-c2onc3c2CCC[C@@]32CCCc3sc(N)c(C#N)c32)n1)[C@@H]1CCCN1C [I-41],–,–
–,763,11,3.1,11,C[C@H](Oc1cc(N2CCNC3(CC3)C2)nc(-c2onc3c2CCC[C@@]32CCCc3sc(N)c(C#N)c32)n1)[C@@H]1C[C@@H](F)CN1C [I-45],–,–
67,–,2.3,13.9,43,C[C@H](O)Cn1ccc(-c2cc(O[C@@H](C)[C@@H]3CCCN3C)nc(-c3onc4c3CCC[C@@]43CCCc4sc(N)c(C#N)c43)n2)n1 [I-31],–,–

SMILES,MBI 3A4 (CYP3A4) [%],IC50 (SK-CO-1 cells; Homo sapiens) [nM],"Papp A→B at 90 min, 10 μM [1] [×10⁻⁶ cm/s]","efflux ratio at 90 min, 10 μM [1]","IC50 ([2]; Mus musculus, BaF3, 72 h) [nM]",IC50 (SK-CO-1 cells) [nM],IC50 ([2]; 72 h) [nM]
C[C@H](Oc1cc(-c2ccn(C)n2)nc(-c2onc3c2CCC[C@@]32CCCc3sc(N)c(C#N)c32)n1)[C@@H]1CCCN1C [I-21],40,–,–,–,–,30,14
C[C@H](Oc1cc(N2CC3CCC(C2)N3)nc(-c2noc3c2CCC[C@@]32CCCc3sc(N)c(C#N)c32)n1)[C@@H]1CCCN1C [II-34],83,1240,0.4,37.8,51,–,–
